Target: Growth hormone secretagogue receptor type 1 (Sus scrofa)
Experiment: Binding Affinity against Growth hormone secretagogue receptor of swine using [35S]MK-0677 as radioligand

SMILES | Ki
CC(C)(N)CC(=O)N[C@@H]1CCc2ccccc2N(Cc2ccc(-c3ccccc3-c3nnn[nH]3)cc2)C1=O [3-Amino-3-methyl-N-{2-oxo-1-[2'-(1H-tetrazol-5-yl)-biphenyl-4-ylmethyl]-2,3,4,5-tetrahydro-1H-benzo[b]azepin-3-yl}-butyramide] | 63 nM
CC(C)(N)CC(=O)N[C@H]1CCc2ccccc2N(Cc2ccc(-c3ccccc3-c3nnn[nH]3)cc2)C1=O [3-Amino-3-methyl-N-{(S)-2-oxo-1-[2'-(1H-tetrazol-5-yl)-biphenyl-4-ylmethyl]-2,3,4,5-tetrahydro-1H-benzo[b]azepin-3-yl}-butyramide] | > 5000 nM

— BindingDB's records for doi:10.1021/jm960054c (Merck Research Laboratories, 1996)
